{"source": "paper PMC6691401", "about": "(Journal of Medicinal Chemistry, 2019)", "molecules": {"B1": {"name": "Mycobacterium abscessus tRNA (m1G37) methyltransferase (TrmD) (enzyme, UniProt B1MDI3 1-242, looked up)", "chain": "MKIDVVTIFPEYLQPVRQSLPGKAIDAGLVDVAVHDLRRWTHDVHKSVDDSPYGGGPGMVMKPTVWGDALDEICTSETLLVVPTPAGYPFTQETAWQWSTEDHLVIACGRYEGIDQRVADDAATRMRVREVSIGDYVLNGGEAAALVIIEAVLRLVPGVLGNALSAQEDSHSEGMASLLEGPSYTRPPSWRGMDVPPVLLSGDHAKIAAWRAEQSRQRTIERRPDLLGFDSPTGEHGGDGLS"}}, "key": {"Mab TrmD [1]": {"biological_target": "T1, Mab TrmD (Mycobacteroides abscessus, UniProt B1MDI3)", "assay": "Differential scanning fluorimetry (DSF) thermal shift", "format": "binding", "settings": "5 mM ligand"}, "Mab TrmD [2]": {"biological_target": "T1, Mab TrmD", "assay": "Native mass spectrometry of ligand binding", "settings": "20 μM Mab TrmD, 100 μM ligand, 5% DMSO", "description": "Native nanoelectrospray ionization mass spectrometry spectra were recorded on a Synapt HDMS mass spectrometer (Waters, Manchester, UK) modified for studying high masses. Mab TrmD was exchanged into 200 mM ammonium acetate (pH 7.0) solution using Micro Bio-Spin 6 chromatography columns (Bio-Rad, UK). Protein samples were equilibrated at room temperature in the absence or presence of the indicated concentrations of ligands for at least 15 min before analysis. Protein solution (2.5 μL) was injected into a gold-coated borosilicate emitter (Thermo Scientific, UK) for sampling. Typical conditions were capillary voltage 1.5 kV, cone voltage 50 V, trap collision voltage 20 V, transfer collision voltage 20 V, source temperature 20 °C, backing pressure 3–4 mbar, trap pressure 3–4 × 10^–2 mbar, IM (N2) pressure 5–6 × 10^–1 mbar and TOF pressure 7–8 × 10^–7 mbar. All mass spectra were calibrated externally with caesium iodide (10 mg/mL). Data acquisition and processing were performed using MassLynx 4.1 (Waters)."}, "Mab TrmD [3]": {"biological_target": "T1, Mab TrmD", "assay": "Isothermal titration calorimetry (ITC)", "format": "binding", "settings": "for GE (R^1): group efficiency of R^1; for LE: ligand efficiency"}, "Mab TrmD [4]": {"biological_target": "T1, Mab TrmD", "parameters": "method as in PMID 32602532", "settings": "cited from earlier work; for thermal shift (ΔTm): 5 mM ligand; for ΔTm: Table 3, 5 mM ligand and 10 μM Mab TrmD"}, "Mab TrmD [5]": {"biological_target": "T1, Mab TrmD", "settings": "ligand efficiency, previously reported, cited from earlier work"}, "[6]": {"biological_target": "the molecule itself", "assay": "native MS; nanoelectrospray, Mab TrmD exchanged into 200 mM ammonium acetate pH 7.0, room temperature, protein alone (dimer also seen with 5% DMSO and with ligands)"}}, "note": "Like-named read-outs stand apart in the source and are kept apart here."}
{"molecule": "COc1cccc(-c2cc(N)n[nH]2)c1", "note": "[Compound 19, 5-(3-Methoxyphenyl)-1H-pyrazol-3-amine]", "values": [{"measurement": "thermal shift (ΔTm)", "setting": "Mab TrmD [1]", "value": "negative thermal shift"}]}
{"molecule": "Nc1cc(-c2ccc3ccn(Cc4ccccc4)c3c2)[nH]n1", "note": "[Compound 24c, 5-(1-Benzyl-1H-indol-6-yl)-1H-pyrazol-3-amine]", "values": [{"measurement": "binding to Mab TrmD dimer observed by native MS", "setting": "Mab TrmD [2]", "value": "entirely doubly bound"}, {"measurement": "GE (R^1)", "setting": "Mab TrmD [3]; Table 4", "value": "0.15 kcal mol^–1 per heavy atom"}, {"measurement": "LE", "setting": "Mab TrmD [3]; Table 4", "value": "0.29 kcal mol^–1 per heavy atom"}, {"measurement": "GE", "setting": "Mab TrmD [3]; group efficiency of the added group", "value": "0.15 kcal mol^–1 per heavy atom"}, {"measurement": "LE", "setting": "Mab TrmD [3]", "value": "0.29 kcal mol^–1 per heavy atom"}]}
{"molecule": "Cc1ccc(-c2cc(N)[nH]n2)cc1", "note": "[Compound 18, 5-(p-tolyl)-1H-pyrazol-3-amine]", "values": [{"measurement": "thermal shift (ΔTm)", "setting": "Mab TrmD [4]", "value": "1.4–1.5 °C"}, {"measurement": "ΔTm", "setting": "Mab TrmD [4]", "value": "+1.4 °C"}]}
{"molecule": "COc1ccc(-c2cc(N)[nH]n2)cc1", "note": "[Compound 16, 5-(4-methoxyphenyl)-1H-pyrazol-3-amine]", "values": [{"measurement": "ΔTm", "setting": "Mab TrmD [4]", "value": "+3.0 °C"}, {"measurement": "LE", "setting": "Mab TrmD [5]; Table 3", "value": "0.37 kcal mol^–1 per heavy atom"}, {"measurement": "LE", "setting": "Mab TrmD [5]", "value": "0.37 kcal mol^–1 per heavy atom"}]}
{"molecule": "CCNC(=O)c1cn[nH]c1", "note": "[Compound 2, N-Ethyl-1H-pyrazole-4-carboxamide]", "values": [{"measurement": "ΔTm", "setting": "Mab TrmD [1]", "value": "< 0.5", "unit": "°C"}]}
{"molecule": "Nc1cc(-c2ccc3ccn(Cc4ccccn4)c3c2)[nH]n1", "note": "[Compound 24f, 5-(1-(Pyridin-2-ylmethyl)-1H-indol-6-yl)-1H-pyrazol-3-amine]", "values": [{"measurement": "LE", "setting": "Mab TrmD [5]; Table 4", "value": "0.30 kcal mol^–1 per heavy atom"}, {"measurement": "LE", "setting": "Mab TrmD [5]", "value": "0.30 kcal mol^–1 per heavy atom"}, {"measurement": "GE (R^1)", "setting": "Mab TrmD [3]; Table 4", "value": "0.18 kcal mol^–1 per heavy atom"}]}
{"molecule": "O=C(O)c1ccc2cc[nH]c2c1", "note": "[Compound 21, 1H-indole-6-carboxylic acid]", "values": [{"measurement": "thermal shift (ΔTm)", "setting": "Mab TrmD [4]", "value": "no ΔTm observed"}, {"measurement": "ΔTm", "setting": "Mab TrmD [4]", "value": "–0.6 °C"}]}
{"molecule": "OB(O)c1ccc2cc[nH]c2c1", "note": "[Compound 20, (1H-indol-6-yl)boronic acid]", "values": [{"measurement": "ΔTm", "setting": "Mab TrmD [4]", "value": "+4.0 °C"}, {"measurement": "LE", "setting": "Mab TrmD [5]; Table 3", "value": "0.41 kcal mol^–1 per heavy atom"}, {"measurement": "LE", "setting": "Mab TrmD [5]", "value": "0.41 kcal mol^–1 per heavy atom"}]}
{"molecule": "N#Cc1c(N)n[nH]c1-c1ccc2ccn(Cc3ccc(CN4CCCC4)cc3)c2c1", "note": "[Compound 29a, 3-Amino-5-(1-(4-(pyrrolidin-1-ylmethyl)benzyl)-1H-indol-6-yl)-1H-pyrazole-4-carbonitrile]", "values": [{"measurement": "binding to Mab TrmD dimer observed by native MS", "setting": "Mab TrmD [2]", "value": "low gas-phase stabilities"}, {"measurement": "LE", "setting": "Mab TrmD [5]; Table 6", "value": "0.34 kcal mol^–1 per heavy atom"}, {"measurement": "LE", "setting": "Mab TrmD [5]", "value": "0.34 kcal mol^–1 per heavy atom"}]}
{"molecule": "Nc1cc(-c2ccccc2)n[nH]1", "note": "[Compound 17, 5-phenyl-1H-pyrazol-3-amine]", "values": [{"measurement": "thermal shift (ΔTm)", "setting": "Mab TrmD [4]", "value": "1.4–1.5 °C"}, {"measurement": "ΔTm", "setting": "Mab TrmD [4]", "value": "+1.5 °C"}]}
{"molecule": "B1", "values": [{"measurement": "stoichiometry N", "setting": "[6]", "value": 2}]}
